From patent US7932394B2, “Aryloxy-substituted benzimidazole derivatives” (MSD K.K., priority 2004, dated 2011)

Target: T1, recombinant human liver GK (Homo sapiens, UniProt P35557)
T1 construct: made in house; host or cells: E. coli
T1 sequence (P35557 1-466 isoform P35557-2): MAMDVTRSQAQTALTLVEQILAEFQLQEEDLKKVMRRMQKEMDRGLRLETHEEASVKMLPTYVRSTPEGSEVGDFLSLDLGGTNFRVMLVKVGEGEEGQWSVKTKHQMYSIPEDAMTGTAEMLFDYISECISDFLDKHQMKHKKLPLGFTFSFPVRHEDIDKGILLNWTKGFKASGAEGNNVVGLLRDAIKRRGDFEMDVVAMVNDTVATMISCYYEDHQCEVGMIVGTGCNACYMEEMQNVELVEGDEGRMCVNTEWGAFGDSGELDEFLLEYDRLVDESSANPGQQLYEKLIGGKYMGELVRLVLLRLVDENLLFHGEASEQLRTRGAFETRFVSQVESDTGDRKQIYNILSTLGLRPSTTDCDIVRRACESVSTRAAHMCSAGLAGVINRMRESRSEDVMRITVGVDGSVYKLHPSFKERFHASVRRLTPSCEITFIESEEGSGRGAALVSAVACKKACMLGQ
Assay: GK-activating potency: glucokinase activity via Thio-NADH level (G6PDH reporter enzyme)
Assay type: biochemical
Settings: FLAG-GK, 30° C., final glucose concentration 2.5 mM; for Emax: OD level of DMSO control set as 100%
Text: The excellent glucokinase-activating effect of the compounds of formula (I) may be determined by a method described in references (for example, Diabetes, Vol. 45, pp. 1671-1677, 1996), or in accordance with it.
The glucokinase activity may be determined not by directly measuring glucose-6-phosphate but by measuring the level of Thio-NADH, which is produced when a reporter enzyme, glucose-6-phosphate dehydrogenase produces phosphogluconolactone from glucose-6-phosphate, and based on the level, the degree of glucokinase activity of the compound tested may be determined.
In this assay, used was a recombinant human liver GK, which was expressed by E. coli as a FLAG fusion protein therein and was purified by ANTIFLAG M2 AFFINITY GEL (Sigma).
Using a flat-bottomed 96-well plate, the assay was carried out at 30° C. 69 μl of an assay buffer (25 mM Hepes Buffer/pH=7.2, 2 mM MgCl2, 1 mM ATP, 0.5 mM TNAD, 1 mM dithiothreitol) was put into the plate, and 1 μl of a DMSO solution of the compound or DMSO alone as a control was added thereto. Next, 20 μl of an enzyme mixture (FLAG-GK, 20 U/ml G6PDH) cooled in ice was added to it, and 10 μl of a substrate, 25 mM glucose was added to it, and the reaction was initiated (final glucose concentration=2.5 mM).
After the start of the reaction, the increase in the absorbance at 405 nm was measured for 12 minutes at intervals of 30 seconds, and the increase for the first 5 minutes was used for evaluating the compound tested. FLAG-GK was added so that the absorbance increase after 5 minutes in the presence of 1% DMSO could be from 0.04 to 0.06.
The OD level of the DMSO control was set as 100%; and the OD level of the test compound at different concentrations was determined. From the OD level at each concentration, Emax (%) and EC50 (μM) were computed and used as the index of the GK-activating potency of the compound.

## CS(=O)(=O)c1ccc(Oc2cc3nc(-c4ccccn4)[nH]c3cc2CN2C(=O)CCC2=O)cc1 [Example 1, 1-{[5-[4-(Methylsulfonyl)phenoxy]-2-(2-pyridinyl)-1H-benzimidazol-6-yl]methyl}pyrrolidine-2,5-dione]
  EC50: 120 nM

## CCS(=O)(=O)c1ccc(Oc2cc3nc(-c4ccccn4)[nH]c3cc2CNS(C)(=O)=O)cc1 [Example 31, N-{[5-[4-(ethylsulfonyl)phenoxy]-2-(2-pyridinyl)-1H-benzimidazol-6-yl]methyl}methanesulfonamide]
  EC50: 490 nM
  Emax: 982%

## CCS(=O)(=O)c1ccc(Oc2cc3nc(-c4ccccn4)[nH]c3cc2Cc2ccc(F)cc2)cc1 [Example 65, 5-[4-(Ethylsulfonyl)phenoxy]-6-(4-fluorobenzyl)-2-(2-pyridinyl)-1H-benzimidazole]
  EC50: 360 nM
  Emax: 805%
